Active and inactive are the calls of the source. No cut-off for these calls is given here.
Legend:
HeLa [1] = assay: Antiproliferative activity against human HeLa cells incubated for 48 hrs by MTT assay; format: functional, cell-based
HCT-116 = assay: Antiproliferative activity against human HCT116 cells incubated for 48 hrs by MTT assay; format: functional, cell-based; conditions: HCT-116, 48 h
MDA-MB-231 = assay: Antiproliferative activity against human MDA-MB-231 cells incubated for 48 hrs by MTT assay; format: functional, cell-based; conditions: MDA-MB-231, 48 h
[2] = Inhibition of porcine brain tubulin polymerization measured every 60 secs for 90 mins by DAPI dye based fluorescence assay; set-up: species or system Sus scrofa
HeLa [3] = assay: Induction of cell cycle arrest in human HeLa cells assessed as tetraploid peaks level at 50 nM incubated for 24 hrs by propidium iodide staining based flow cytometry; format: functional
HeLa [4] = assay: Induction of cell cycle arrest in human HeLa cells assessed as accumulation at G2/M phase at 100 nM incubated for 24 hrs by propidium iodide staining based flow cytometry; format: functional
HeLa [5] = assay: Induction of cell cycle arrest in human HeLa cells assessed as accumulation at G2/M phase at 500 nM incubated for 24 hrs by propidium iodide staining based flow cytometry; format: functional
HeLa [6] = assay: Induction of cell cycle arrest in human HeLa cells assessed as tetraploid peaks level at 50 nM incubated for 48 hrs by propidium iodide staining based flow cytometry; format: functional
HeLa [7] = assay: Induction of cell cycle arrest in human HeLa cells assessed as induction of disappearance of G2/M phase at 500 nM incubated for 48 hrs by propidium iodide staining based flow cytometry; format: functional
HeLa [8] = assay: Induction of cell cycle arrest in human HeLa cells assessed as accumulation at subG1 phase at 100 nM incubated for 24 hrs by propidium iodide staining based flow cytometry; format: functional
HeLa [9] = assay: Inhibition of tubulin polymerization in human HeLa cells assessed as morphological changes by measuring microtubule organisation derangement at 0.05 uM incubated for 24 hrs by laser scanning confocal microscopy; format: functional, cell-based
HeLa [10] = assay: Inhibition of tubulin polymerization in human HeLa cells assessed as morphological changes by measuring narrowing of nucleus at 0.5 uM incubated for 24 hrs by laser scanning confocal microscopy; format: functional, cell-based
HeLa [11] = assay: Inhibition of tubulin polymerization in human HeLa cells assessed as morphological changes by measuring spindle microtubule dis-organisation at 0.5 uM incubated for 24 hrs by laser scanning confocal microscopy; format: functional, cell-based
HeLa [12] = assay: Induction of apoptosis in human HeLa cells assessed as early apoptotic cells level at 50 nM incubated for 48 hrs by Annexin-V/FITC and propidium iodide staining based flow cytometry (reference value: 0.16%); format: functional
HeLa [13] = assay: Induction of apoptosis in human HeLa cells assessed as necrotic cells level at 50 nM incubated for 48 hrs by Annexin-V/FITC and propidium iodide staining based flow cytometry (reference value: 0.03%); format: functional
HeLa [14] = assay: Induction of apoptosis in human HeLa cells assessed as early apoptotic cells level at 100 nM incubated for 48 hrs by Annexin-V/FITC and propidium iodide staining based flow cytometry (reference value: 0.16%); format: functional
HeLa [15] = assay: Induction of apoptosis in human HeLa cells assessed as necrotic cells level at 100 nM incubated for 48 hrs by Annexin-V/FITC and propidium iodide staining based flow cytometry (reference value: 0.03%); format: functional
HeLa [16] = assay: Induction of apoptosis in human HeLa cells assessed as viable cells level at 500 nM incubated for 48 hrs by Annexin-V/FITC and propidium iodide staining based flow cytometry (reference value: 99.72%); format: functional
HeLa [17] = assay: Induction of apoptosis in human HeLa cells assessed as early apoptotic cells level at 500 nM incubated for 48 hrs by Annexin-V/FITC and propidium iodide staining based flow cytometry (reference value: 0.16%); format: functional
HeLa [18] = assay: Induction of apoptosis in human HeLa cells assessed as late apoptotic cells level at 500 nM incubated for 48 hrs by Annexin-V/FITC and propidium iodide staining based flow cytometry (reference value: 0.02%); format: functional
HeLa [19] = assay: Induction of apoptosis in human HeLa cells assessed as necrotic cells level at 500 nM incubated for 48 hrs by Annexin-V/FITC and propidium iodide staining based flow cytometry (reference value: 0.03%); format: functional
HeLa [20] = assay: Induction of apoptosis in human HeLa cells assessed as late apoptotic cells level at 50 nM incubated for 72 hrs by Annexin-V/FITC and propidium iodide staining based flow cytometry (reference value: 0.02%); format: functional
HeLa [21] = assay: Induction of apoptosis in human HeLa cells assessed as necrotic cells level at 50 nM incubated for 72 hrs by Annexin-V/FITC and propidium iodide staining based flow cytometry (reference value: 0.03%); format: functional
HeLa [22] = assay: Induction of apoptosis in human HeLa cells assessed as viable cells level at 100 nM incubated for 72 hrs by Annexin-V/FITC and propidium iodide staining based flow cytometry (reference value: 99.72%); format: functional
HeLa [23] = assay: Induction of apoptosis in human HeLa cells assessed as early apoptotic cells level at 100 nM incubated for 72 hrs by Annexin-V/FITC and propidium iodide staining based flow cytometry (reference value: 0.16%); format: functional
HeLa [24] = assay: Induction of apoptosis in human HeLa cells assessed as necrotic cells level at 100 nM incubated for 72 hrs by Annexin-V/FITC and propidium iodide staining based flow cytometry (reference value: 0.03%); format: functional
HeLa [25] = assay: Induction of apoptosis in human HeLa cells assessed as viable cells level at 500 nM incubated for 72 hrs by Annexin-V/FITC and propidium iodide staining based flow cytometry (reference value: 99.72%); format: functional
HeLa [26] = assay: Induction of apoptosis in human HeLa cells assessed as late apoptotic cells level at 500 nM incubated for 72 hrs by Annexin-V/FITC and propidium iodide staining based flow cytometry (reference value: 0.02%); format: functional
HeLa [27] = assay: Induction of apoptosis in human HeLa cells assessed as necrotic cells level at 500 nM incubated for 72 hrs by Annexin-V/FITC and propidium iodide staining based flow cytometry (reference value: 0.03%); format: functional
HeLa [28] = assay: Induction of mitochondrial transmembrane potential loss in human HeLa cells assessed as JC1 dye aggregates level at 50 nM incubated for 24 hrs by JC1 staining based flow cytometry (reference value: 95.85%); format: functional
HeLa [29] = assay: Induction of mitochondrial transmembrane potential loss in human HeLa cells assessed as JC1 dye aggregates level at 100 nM incubated for 24 hrs by JC1 staining based flow cytometry (reference value: 95.85%); format: functional
HeLa [30] = assay: Induction of mitochondrial transmembrane potential loss in human HeLa cells assessed as JC1 dye aggregates level at 500 nM incubated for 24 hrs by JC1 staining based flow cytometry (reference value: 95.85%); format: functional
HeLa [31] = assay: Induction of mitochondrial transmembrane potential loss in human HeLa cells assessed as JC1 dye monomers level at 500 nM incubated for 24 hrs by JC1 staining based flow cytometry (reference value: 4.12%); format: functional
HeLa [32] = assay: Induction of mitochondrial transmembrane potential loss in human HeLa cells at 50 nM incubated for 24 hrs by JC1 staining based fluorescence microscopy; format: functional, cell-based
HeLa [33] = assay: Induction of mitochondrial transmembrane potential loss in human HeLa cells at 500 nM incubated for 24 hrs by JC1 staining based fluorescence microscopy; format: functional, cell-based

SMILES: COc1ccc(N(C)c2cc(C)nc(C)n2)cc1O
- IC50 (HeLa [1]): 93 nM
- IC50 (HCT-116): 126 nM
- IC50 (MDA-MB-231): 1100 nM
- IC50 [2]: 5810 nM
- Activity (HeLa [3]): 28.3%
- Activity (HeLa [4]): 39.6%
- Activity (HeLa [5]): 55.6%
- Activity (HeLa [6]): 38.7%
- Activity (HeLa [7]): Active
- Activity (HeLa [8]): Active
- inhibition (HeLa [9]): Active
- inhibition (HeLa [10]): Active
- inhibition (HeLa [11]): Active
- Activity (HeLa [12]): 10.44%
- Activity (HeLa [13]): 0.01%
- Activity (HeLa [14]): 23.16%
- Activity (HeLa [15]): 0.07%
- Activity (HeLa [16]): 29.81%
- Activity (HeLa [17]): 69.81%
- Activity (HeLa [18]): 0.09%
- Activity (HeLa [19]): 0.29%
- Activity (HeLa [20]): 7.44%
- Activity (HeLa [21]): 0.6%
- Activity (HeLa [22]): 65.2%
- Activity (HeLa [23]): 21.09%
- Activity (HeLa [24]): 2.08%
- Activity (HeLa [25]): 11.77%
- Activity (HeLa [26]): 18.61%
- Activity (HeLa [27]): 3.54%
- Activity (HeLa [28]): 88.35%
- Activity (HeLa [29]): 70.71%
- Activity (HeLa [30]): 51.28%
- Activity (HeLa [31]): 48.26%
- Activity (HeLa [32]): Active
- Activity (HeLa [33]): Active
